Activity calls are given as the source filed them. The rule behind the calls is not given here.

For assay [1], the target named is T1, 17-beta-hydroxysteroid dehydrogenase type 1 (Homo sapiens) (UniProt P14061).
T1 sequence (whole entry): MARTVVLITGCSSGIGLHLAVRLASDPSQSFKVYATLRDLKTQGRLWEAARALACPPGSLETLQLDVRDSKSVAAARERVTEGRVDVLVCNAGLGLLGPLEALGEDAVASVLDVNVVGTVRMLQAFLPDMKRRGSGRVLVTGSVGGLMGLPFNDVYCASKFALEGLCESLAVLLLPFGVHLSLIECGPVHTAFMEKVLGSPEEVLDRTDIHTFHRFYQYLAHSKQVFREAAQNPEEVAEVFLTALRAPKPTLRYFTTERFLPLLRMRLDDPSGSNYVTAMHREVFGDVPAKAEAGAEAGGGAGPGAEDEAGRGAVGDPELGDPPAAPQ
As to the kind of experiment: Inhibition of 17beta-HSD1 in human T47D cells expressing estrogen receptor assessed as conversion of [14C]-E1 to [14C]-E2 at 0.3 uM after 24 hrs. It counts as cell-based.

The test system of assay [2] is T47D. As to the kind of experiment: Estrogenic activity in human T47D cells expressing estrogen receptor assessed as stimulation cell growth at 0.1 uM after 7 days relative to control.
For assay [3], the system named is T47D. As to the kind of experiment: Estrogenic activity in human T47D cells expressing estrogen receptor assessed as stimulation cell growth at 1 uM after 7 days relative to control.
The target of assay [4] is T1, 17-beta-hydroxysteroid dehydrogenase type 1 (Homo sapiens). As to the kind of experiment: Inhibition of 17beta-HSD1 in human T47D cells expressing estrogen receptor assessed as conversion of [14C]-E1 to [14C]-E2 at 5 uM after 24 hrs. It counts as cell-based.
In assay [5] the target is T2, 17-beta-hydroxysteroid dehydrogenase type 1 (Homo sapiens, UniProt P14061).
T2 sequence (P14061 whole entry): T1 sequence (whole entry)
Description: Inhibition of 17beta-HSD1 in human T47D cells expressing estrogen receptor assessed as conversion of [14C]-E1 to [14C]-E2 after 24 hrs. It counts as cell-based.

As for `C[C@]12CC[C@@H]3c4ccc(O)cc4CC[C@H]3[C@@H]1C[C@H](Cc1cccc(C(N)=O)c1)[C@@H]2O`, the inhibition is 85% in assay [1] and 90% in assay [4]. The results for the Activity in the assay on T47D [2] and in the assay on T47D [3] were 48% and 83%, respectively.

As for `C[C@]12CC[C@@H]3c4ccc(O)cc4CC[C@H]3[C@@H]1C[C@@H]1[C@@H](Cc3cccc(C(N)=O)c3)C(=O)O[C@@H]12`, the inhibition amounted to 20% in assay [1] and 75% in assay [4]. For the same molecule, the result with T47D [2] and in the assay on T47D [3] was inactive. The IC50 in assay [5] was found to be 1000 nM.

For the origin of these results see ChEMBL document CHEMBL1828522, “Synthesis and preliminary evaluation of a modified estradiol-core bearing a fused γ-lactone as non-estrogenic inhibitor of 17β-hydroxysteroid dehydrogenase type 1” (Bioorg Med Chem Lett, 2011).
